Activity calls are given as the source filed them.
Tests used:
[1] = system: Vero; test: viability loss in Vero cells – cell-based, plate reader, cherry-pick samples, cytotoxicity control, dose response (AID 687020); type: functional; details: Chlorocebus sabaeus
[2] = viability loss in mouse NIH3T3 cells – cell-based, CellTiter-Glo luminescence, dry powder, cytotoxicity control for PglD inhibitor project, dose response (AID 652044); type: functional
[3] = target: Beta-lactamase (Salmonella choleraesuis (strain SC-B67), UniProt Q5J463); test: Epi-absorbance-based counterscreen for selective VIM-2 inhibitors: dose response biochemical high throughput screening assay to identify inhibitors of TEM-1 serine-beta-lactamase.
[4] = target: DNA dC->dU-editing enzyme APOBEC-3A (Homo sapiens, UniProt P31941); test: A3A deaminase inhibition for selectivity – biochemical, dose response (AID 504722); type: functional
[5] = target: T1, Beta-lactamase (Pseudomonas aeruginosa, UniProt Q79MP6); test: inhibition of IMP-1 beta-lactamase activity – biochemical, epi-absorbance, selectivity assay for VIM-2 inhibitor project, dose response (AID 1920)
[6] = target: DNA dC->dU-editing enzyme APOBEC-3G (Homo sapiens, UniProt Q9HC16); test: Dose Response confirmation of small molecule APOBEC3G DNA Deaminase Inhibitors via a fluorescence-based single-stranded DNA deaminase assay. [Related pubchem assays (depositor defined):AID493012, AID493028]; type: functional
[7] = target: T1, Beta-lactamase; test: […] counterscreen for selective VIM-2 inhibitors: dose response biochemical high throughput screening assay to identify inhibitors of IMP-1 metallo-beta-lactamase.
[8] = target: T2, Rac GTPase-activating protein 1 (Homo sapiens, UniProt Q9H0H5); test: blockers of MgcRacGAP-driven Rac1 GTP hydrolysis – biochemical, ADP Hunter fluorescence, primary and confirmatory, confirmation (AID 624330); type: functional
T2 sequence (Q9H0H5 whole entry): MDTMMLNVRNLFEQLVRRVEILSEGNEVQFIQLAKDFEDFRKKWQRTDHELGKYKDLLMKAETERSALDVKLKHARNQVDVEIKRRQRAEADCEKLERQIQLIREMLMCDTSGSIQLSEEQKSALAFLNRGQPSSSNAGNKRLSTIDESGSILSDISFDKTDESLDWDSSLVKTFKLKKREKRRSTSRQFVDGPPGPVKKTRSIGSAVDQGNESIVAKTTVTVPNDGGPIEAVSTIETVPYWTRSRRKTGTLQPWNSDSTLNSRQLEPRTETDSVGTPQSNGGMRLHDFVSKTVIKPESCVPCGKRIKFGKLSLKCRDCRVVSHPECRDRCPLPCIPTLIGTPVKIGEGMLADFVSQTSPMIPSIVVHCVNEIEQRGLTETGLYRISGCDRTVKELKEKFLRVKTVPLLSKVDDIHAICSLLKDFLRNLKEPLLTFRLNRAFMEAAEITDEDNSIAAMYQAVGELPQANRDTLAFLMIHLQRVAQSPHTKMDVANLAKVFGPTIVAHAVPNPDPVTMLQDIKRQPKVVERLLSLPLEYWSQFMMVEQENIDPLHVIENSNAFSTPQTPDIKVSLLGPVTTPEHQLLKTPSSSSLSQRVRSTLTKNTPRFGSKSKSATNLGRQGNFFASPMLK

[9] = target: 5-hydroxytryptamine receptor 2A (Mus musculus, UniProt P35363); type: functional, cell-based;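 also: CHO-K1 cells with tagged receptor and beta-arrestin; agonist potency measured as compound-induced activation of the receptor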
[10] = target: T3, Neuropeptides B/W receptor type 1 (Homo sapiens, UniProt P48145); test: Fluorescence-based dose response cell-based high throughput screening assay to identify antagonists of the G-protein coupled receptor 7 (GPR7). [Related pubchem assays: 1952 (Screening assay (GPR7 antagonists).), 1880 (Summary AID.)]; type: functional
T3 sequence (P48145 whole entry): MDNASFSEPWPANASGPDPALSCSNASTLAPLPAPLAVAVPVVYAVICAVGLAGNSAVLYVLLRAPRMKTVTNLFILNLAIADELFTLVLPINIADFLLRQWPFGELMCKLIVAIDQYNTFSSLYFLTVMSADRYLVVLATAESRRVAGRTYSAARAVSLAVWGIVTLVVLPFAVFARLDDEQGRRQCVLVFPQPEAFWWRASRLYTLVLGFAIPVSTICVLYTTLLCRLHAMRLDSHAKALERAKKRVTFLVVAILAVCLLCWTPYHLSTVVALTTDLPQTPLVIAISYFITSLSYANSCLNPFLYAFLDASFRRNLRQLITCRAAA

[11] = target: T4, Long-chain-fatty-acid--AMP ligase FadD28 (Mycobacterium tuberculosis, UniProt P9WQ59); test: Fluorescence polarization aasay to screen for inhibitors that compete for the binding of FadD28 to a bisubstrate Measured in Biochemical System Using Plate Reader - 2147-01_Inhibitor_Dose_CherryPick_Activity.; type: functional, Mycobacterium tuberculosis H37Rv
T4 sequence (P9WQ59 whole entry): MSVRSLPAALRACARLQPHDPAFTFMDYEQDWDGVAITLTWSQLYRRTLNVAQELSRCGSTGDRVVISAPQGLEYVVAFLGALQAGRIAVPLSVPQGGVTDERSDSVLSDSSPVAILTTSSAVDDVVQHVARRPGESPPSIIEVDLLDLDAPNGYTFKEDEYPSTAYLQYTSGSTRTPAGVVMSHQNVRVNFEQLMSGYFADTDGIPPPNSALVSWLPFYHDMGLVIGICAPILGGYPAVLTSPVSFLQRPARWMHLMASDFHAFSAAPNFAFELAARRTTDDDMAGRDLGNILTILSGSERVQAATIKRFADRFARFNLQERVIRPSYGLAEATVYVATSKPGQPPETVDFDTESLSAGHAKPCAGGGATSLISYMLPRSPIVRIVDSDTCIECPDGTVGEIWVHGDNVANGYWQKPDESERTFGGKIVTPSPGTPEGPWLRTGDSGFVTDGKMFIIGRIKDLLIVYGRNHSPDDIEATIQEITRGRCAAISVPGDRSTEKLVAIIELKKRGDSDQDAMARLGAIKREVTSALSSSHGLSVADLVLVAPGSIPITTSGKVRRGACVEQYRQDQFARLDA

[12] = target: Mu-type opioid receptor (Homo sapiens, UniProt P35372); type: functional, cell-based;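 also: U2OS cells with beta-arrestin recruitment to OPRM1 by beta-gal complementation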
[13] = target: Melanin-concentrating hormone receptor 1 (Homo sapiens, UniProt Q99705); test: Fluorescence-based counterscreen for antagonists of the G-protein coupled receptor 7 (GPR7): cell-based high throughput dose response assay to identify antagonists of the melanin-concentrating hormone receptor 1 (MCHR1).; type: functional
[14] = cells; type: functional, cell-based
[15] = target: T5, Nuclear receptor subfamily 0 group B member 1 (Homo sapiens, UniProt P51843); type: functional, cell-based;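 also: HEK293T cells transfected with SF-1 and DAX-1 plus StAR promoter luciferase reporter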
T5 sequence (P51843 whole entry): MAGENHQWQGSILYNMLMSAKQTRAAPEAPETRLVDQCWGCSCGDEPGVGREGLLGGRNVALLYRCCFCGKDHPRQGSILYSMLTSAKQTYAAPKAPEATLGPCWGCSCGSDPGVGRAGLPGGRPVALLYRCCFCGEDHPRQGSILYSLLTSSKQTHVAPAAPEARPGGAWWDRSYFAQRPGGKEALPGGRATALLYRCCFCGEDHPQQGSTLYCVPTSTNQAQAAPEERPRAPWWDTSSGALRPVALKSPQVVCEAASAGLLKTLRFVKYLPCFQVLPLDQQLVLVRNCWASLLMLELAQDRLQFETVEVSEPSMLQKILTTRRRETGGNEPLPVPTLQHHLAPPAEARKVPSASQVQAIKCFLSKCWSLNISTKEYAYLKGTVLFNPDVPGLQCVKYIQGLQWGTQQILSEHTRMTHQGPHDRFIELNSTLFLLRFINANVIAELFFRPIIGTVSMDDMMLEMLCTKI

[16] = target: Paired box protein Pax-8 (Homo sapiens, UniProt Q06710); test: PAX8 transcriptional activity inhibition in RMG-I – RMG-I cells, luciferase, cherry-pick, dose response (AID 687027); type: functional, cell-based;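 also: luciferase reporter driven by Pax8 target thyroperoxidase promoter measured by SteadyGlo luminescence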
[17] = general mammalian cell viability loss – activator set, cherry-pick, cytotoxicity control for miR-122 modulator project, dose response (AID 720690); type: functional, cell-based;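 also: HEK293T human cells scored for general mammalian cytotoxicity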
[18] = activation of miR-122 Renilla sensor silencing – cell-based, Huh7 psiCHECK-miR122, Renilla luciferase, cherry-picked, dose response (AID 651956); type: functional;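 also: huh7 hepatoma cells stably carrying a psiCHECK-2 miR-122 sensor plasmid; renilla luciferase signal reporting endogenous miR-122 activity after 48 h compound exposure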
[19] = target: T6, Oxysterols receptor LXR-beta (Homo sapiens, UniProt P55055); type: functional, cell-based;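 also: agonist activity at LXR measured by a cell-based luminescence readout across a dose range, run as a counterscreen for daf-12 agonists; HEK293 cells with Gal4-LXR fusion and GAL4-driven luciferase reporter; potency for activation of Gal4-LXR reporter so compounds are agonists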
T6 sequence (P55055 whole entry): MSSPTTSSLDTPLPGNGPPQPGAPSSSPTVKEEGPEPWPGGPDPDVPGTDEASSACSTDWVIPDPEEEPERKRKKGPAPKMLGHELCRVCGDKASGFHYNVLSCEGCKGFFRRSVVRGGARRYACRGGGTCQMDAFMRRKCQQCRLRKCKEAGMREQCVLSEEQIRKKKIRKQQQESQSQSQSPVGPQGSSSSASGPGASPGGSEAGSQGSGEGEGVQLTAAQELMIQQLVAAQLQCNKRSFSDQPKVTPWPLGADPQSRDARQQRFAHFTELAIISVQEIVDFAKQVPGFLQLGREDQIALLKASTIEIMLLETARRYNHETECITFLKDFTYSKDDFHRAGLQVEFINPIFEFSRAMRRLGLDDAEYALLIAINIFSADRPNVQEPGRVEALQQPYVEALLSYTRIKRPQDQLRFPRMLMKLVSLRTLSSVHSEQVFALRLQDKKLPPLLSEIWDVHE

[20] = target: Beta-galactosidase (Escherichia coli, UniProt Q8VNN2); test: Dose response counterscreen for EBI2 assay utilizing the enzyme, b-galactosidase.; type: functional
Chain of Beta-galactosidase (Q8VNN2 whole entry): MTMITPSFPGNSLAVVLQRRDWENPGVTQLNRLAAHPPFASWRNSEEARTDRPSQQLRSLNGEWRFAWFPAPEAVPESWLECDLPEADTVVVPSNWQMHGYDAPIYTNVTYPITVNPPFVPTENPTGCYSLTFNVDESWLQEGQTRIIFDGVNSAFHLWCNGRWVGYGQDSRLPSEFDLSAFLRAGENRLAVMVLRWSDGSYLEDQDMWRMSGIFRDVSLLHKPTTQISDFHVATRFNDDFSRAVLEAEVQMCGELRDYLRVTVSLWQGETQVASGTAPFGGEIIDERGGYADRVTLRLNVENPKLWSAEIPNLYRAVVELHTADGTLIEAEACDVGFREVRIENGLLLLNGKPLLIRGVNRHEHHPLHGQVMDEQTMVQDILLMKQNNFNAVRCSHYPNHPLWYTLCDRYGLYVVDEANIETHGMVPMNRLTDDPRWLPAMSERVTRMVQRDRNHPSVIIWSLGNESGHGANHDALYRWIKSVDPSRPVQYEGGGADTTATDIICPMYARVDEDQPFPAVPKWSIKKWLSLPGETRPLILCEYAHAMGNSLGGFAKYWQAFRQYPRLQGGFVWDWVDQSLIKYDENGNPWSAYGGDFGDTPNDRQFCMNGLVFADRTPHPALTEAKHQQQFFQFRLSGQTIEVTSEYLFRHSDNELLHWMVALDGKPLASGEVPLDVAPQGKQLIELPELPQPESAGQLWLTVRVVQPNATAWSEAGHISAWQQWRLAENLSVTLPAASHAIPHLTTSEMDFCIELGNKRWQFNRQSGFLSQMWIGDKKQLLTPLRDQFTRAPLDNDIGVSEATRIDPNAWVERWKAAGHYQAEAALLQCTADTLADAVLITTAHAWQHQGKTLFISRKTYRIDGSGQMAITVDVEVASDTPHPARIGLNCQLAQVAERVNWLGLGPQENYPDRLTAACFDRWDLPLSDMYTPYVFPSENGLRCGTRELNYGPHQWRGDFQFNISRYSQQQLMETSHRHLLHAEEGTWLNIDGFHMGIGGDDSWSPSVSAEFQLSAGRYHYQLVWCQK

T1 sequence (Q79MP6 whole entry): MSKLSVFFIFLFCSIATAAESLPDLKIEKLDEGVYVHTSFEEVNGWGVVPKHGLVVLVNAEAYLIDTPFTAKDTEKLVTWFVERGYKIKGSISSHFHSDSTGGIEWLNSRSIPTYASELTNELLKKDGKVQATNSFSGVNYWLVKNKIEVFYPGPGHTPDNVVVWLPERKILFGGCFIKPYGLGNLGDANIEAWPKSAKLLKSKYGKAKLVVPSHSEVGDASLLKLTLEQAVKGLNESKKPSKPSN
Chain of DNA dC->dU-editing enzyme APOBEC-3A (P31941 whole entry): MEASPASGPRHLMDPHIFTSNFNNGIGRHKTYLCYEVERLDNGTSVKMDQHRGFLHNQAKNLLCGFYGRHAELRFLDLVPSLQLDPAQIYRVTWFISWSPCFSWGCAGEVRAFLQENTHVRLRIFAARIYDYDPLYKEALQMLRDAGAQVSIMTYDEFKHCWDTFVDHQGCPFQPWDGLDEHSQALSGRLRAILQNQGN
Chain of Beta-lactamase (Salmonella choleraesuis (strain SC-B67), UniProt Q5J463) (Q5J463 whole entry): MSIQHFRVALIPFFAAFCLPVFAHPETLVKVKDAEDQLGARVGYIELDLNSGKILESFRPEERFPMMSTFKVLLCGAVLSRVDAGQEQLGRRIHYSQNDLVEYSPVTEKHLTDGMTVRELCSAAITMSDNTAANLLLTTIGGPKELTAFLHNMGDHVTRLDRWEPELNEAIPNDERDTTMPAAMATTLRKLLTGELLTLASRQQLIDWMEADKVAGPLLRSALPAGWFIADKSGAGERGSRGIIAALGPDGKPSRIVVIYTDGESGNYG
Chain of Mu-type opioid receptor (P35372 whole entry): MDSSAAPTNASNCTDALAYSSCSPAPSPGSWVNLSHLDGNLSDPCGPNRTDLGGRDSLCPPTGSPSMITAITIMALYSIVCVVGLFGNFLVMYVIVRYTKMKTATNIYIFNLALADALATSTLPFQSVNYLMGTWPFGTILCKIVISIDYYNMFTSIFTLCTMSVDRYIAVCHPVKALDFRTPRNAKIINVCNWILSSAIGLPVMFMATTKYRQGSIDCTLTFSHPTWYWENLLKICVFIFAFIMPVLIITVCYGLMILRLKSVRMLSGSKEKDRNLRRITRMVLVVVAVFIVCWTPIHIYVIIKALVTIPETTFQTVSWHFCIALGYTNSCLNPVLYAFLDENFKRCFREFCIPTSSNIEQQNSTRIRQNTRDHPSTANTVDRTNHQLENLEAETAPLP
Chain of DNA dC->dU-editing enzyme APOBEC-3G (Q9HC16 whole entry): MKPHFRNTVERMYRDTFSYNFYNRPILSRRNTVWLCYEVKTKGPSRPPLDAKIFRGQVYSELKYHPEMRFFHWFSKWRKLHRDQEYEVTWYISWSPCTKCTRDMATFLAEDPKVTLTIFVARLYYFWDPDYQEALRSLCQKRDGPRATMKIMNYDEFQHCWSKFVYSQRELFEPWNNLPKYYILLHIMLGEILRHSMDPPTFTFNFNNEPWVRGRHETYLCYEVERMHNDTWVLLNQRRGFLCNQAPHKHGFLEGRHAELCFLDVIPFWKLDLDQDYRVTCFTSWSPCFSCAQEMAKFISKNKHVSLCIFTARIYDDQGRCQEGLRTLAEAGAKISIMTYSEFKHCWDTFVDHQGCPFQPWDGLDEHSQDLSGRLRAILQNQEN
Chain of Melanin-concentrating hormone receptor 1 (Q99705 whole entry): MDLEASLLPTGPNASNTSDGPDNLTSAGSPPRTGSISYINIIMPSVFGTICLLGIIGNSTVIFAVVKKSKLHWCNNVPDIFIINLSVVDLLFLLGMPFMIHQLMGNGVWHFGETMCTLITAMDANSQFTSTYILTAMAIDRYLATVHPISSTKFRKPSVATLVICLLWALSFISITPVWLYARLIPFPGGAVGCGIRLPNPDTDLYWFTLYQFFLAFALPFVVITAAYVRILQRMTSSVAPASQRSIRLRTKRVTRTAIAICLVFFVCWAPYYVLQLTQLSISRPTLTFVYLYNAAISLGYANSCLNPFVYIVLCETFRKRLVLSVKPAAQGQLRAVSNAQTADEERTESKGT
Chain of Paired box protein Pax-8 (Q06710 whole entry): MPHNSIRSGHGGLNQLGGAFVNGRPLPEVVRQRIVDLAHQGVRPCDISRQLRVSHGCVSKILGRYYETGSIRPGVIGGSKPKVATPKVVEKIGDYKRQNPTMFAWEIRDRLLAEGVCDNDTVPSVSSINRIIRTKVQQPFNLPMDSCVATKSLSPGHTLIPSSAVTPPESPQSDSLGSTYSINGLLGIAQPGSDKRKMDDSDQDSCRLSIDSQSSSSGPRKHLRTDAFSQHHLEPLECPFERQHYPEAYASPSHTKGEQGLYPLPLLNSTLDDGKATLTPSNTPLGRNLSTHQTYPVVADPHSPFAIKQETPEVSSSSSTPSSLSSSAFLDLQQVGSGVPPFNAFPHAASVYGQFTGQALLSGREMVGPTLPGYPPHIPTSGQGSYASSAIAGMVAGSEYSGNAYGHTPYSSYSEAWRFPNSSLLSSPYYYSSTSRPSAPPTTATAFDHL
Chain of 5-hydroxytryptamine receptor 2A (P35363 whole entry): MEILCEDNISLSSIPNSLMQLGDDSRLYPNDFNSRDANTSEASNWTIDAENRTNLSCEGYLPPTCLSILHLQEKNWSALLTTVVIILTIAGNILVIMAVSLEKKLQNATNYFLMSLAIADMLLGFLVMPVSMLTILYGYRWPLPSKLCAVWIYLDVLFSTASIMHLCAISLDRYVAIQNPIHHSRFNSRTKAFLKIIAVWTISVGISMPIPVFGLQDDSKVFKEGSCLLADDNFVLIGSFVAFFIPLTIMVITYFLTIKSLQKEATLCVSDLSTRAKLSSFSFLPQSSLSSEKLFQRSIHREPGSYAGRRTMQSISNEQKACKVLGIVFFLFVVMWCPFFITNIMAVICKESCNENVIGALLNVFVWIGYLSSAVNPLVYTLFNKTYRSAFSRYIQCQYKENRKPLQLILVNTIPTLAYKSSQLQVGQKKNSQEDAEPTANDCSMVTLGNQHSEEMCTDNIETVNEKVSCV

In the case of `CCOC(=O)[C@@H]1[C@H]2COc3ccc(Br)cc3[C@@H]2N2C(=O)N(c3ccc(C)cc3)C(=O)[C@]12C`, the AC50 [1] is reported as 35.3 µM (active).

For `CC(C)NC(=O)N(C)C[C@@H]1Oc2ccc(NC(=O)Cc3cn(C)c4ccccc34)cc2C(=O)N([C@H](C)CO)C[C@H]1C`, the AC50 [2] was > 47 µM (inactive).

With `Cn1c(-c2sccc2OCc2ccccc2)n[nH]c1=S` the IC50 [3] was > 59.6 µM (inactive), the IC50 [4] was > 100 µM (inactive) and the IC50 [5] was > 59.6 µM (inactive). The IC50 [6] was 2.8 µM (active) and the IC50 [7] was > 59.6 µM (inactive).

In the case of `C/N=c1\scc(-c2ccc(F)cc2)n1/N=C/c1ccc(O)c(O)c1`, the IC50 [8] is reported as 29.6 µM (active), the EC50 [9] is reported as 5.08 µM (active) and the IC50 [10] is reported as > 14.6 µM (not active). For the same compound, the AC50 [11] was 12.2 µM (active), the EC50 [12] was 92.5 µM (inactive) and the IC50 [13] was 13 µM (not active).

In the case of `COc1cc(-c2cnc3c(NC=O)cc(-c4ccc(C)cc4)cn23)cc(OC)c1OC`, the IC50 [14] is reported as > 67.5 µM (inactive), the IC50 [15] is reported as > 0.834 µM (active) and the AC50 [16] is reported as < 0.26 µM (active).

For `CN1C(=O)c2cc(NC(=O)c3cccc(F)c3)ccc2OC[C@H]2O[C@H](CC(=O)N3CCc4ccccc4C3)CC[C@@H]21`, the AC50 [17] was 31.3 µM (active) and the AC50 [18] was 18.8 µM (active).

In the case of `O=C(Nc1ccc(Cl)cn1)c1cc2ccccc2o1`, the EC50 [19] is reported as > 67.5 µM (inactive).

In the case of `Cc1ccc(Oc2ccc(Oc3ccc(C)cc3)nn2)cc1`, the IC50 [20] is reported as > 80 µM (inactive).
